According to patent US20100210597A1, “C21-Deoxy Ansamycin Derivatives as Antitumor Agents” (priority 2007, published 2010):
Several values for one entry are separate records, joined by “and”; a condition that tells them apart may be missing. Equal entries are not always repeated.

Columns and labels:
[1] = In vivo pharmacokinetic assay in mice; parameters: species or system mouse; settings: female CD-1 mice
Description: The test compound was prepared directly in endotoxin free water. A single dose of 10 mg/kg p.o. or 3 mg/kg i.v. was administered to groups of female CD1 mice (3 mice for each compound per time point). Dose volumes were 10 mL/kg for both oral and intravenous administration. At 4 minutes and 0.25, 0.5, 1, 2, 4, 8, 24 hours groups were sacrificed and plasma was collected from each mouse for further analysis. For oral dosing, a single dose of Test Article was administered via oral gavage to the mice. For intravenous dosing, a single dose of Test article was administered intravenously to mice via the tail veins.
The concentration of the relevant compounds in the plasma samples was determined by HPLC with MS detection.
• Mass spectrometer: API 3200 Q Trap triple quadruple mass spectrometer • Liquid chromatography: Agilent 1200/PAL HTC Autosampler • Ionization Mode: Electrospray (may be changed depending on the TA) • Monitoring: Multiple Reaction Monitoring • LC chromatography BetaBastic-8, 50×2.1 mm, 5 μm (may separation: be changed depending on the TA)
Based on the peak area ratios of test article to an internal standard, 17-Methoxyethylamino Geldanamycin (Schnur et al., 1995), concentrations of an unknown sample were obtained by a calibration curve.
Test plasma sample (0.05 ml), analyte free mouse whole serum (0.05 ml), internal standard solution (0.1 ml of 10 mg/mL 17-Methoxyethylamino geldanamycin (Schnur et al., 1995) dissolved in methanol) and acetonitrile (0.5 ml) were pipetted into a 2-mL polypropylene tube and the contents of the tubes were mixed for a minimum of 5 minutes (Vibrax mixer). The tubes were then centrifuged in a microfuge for a minimum of 2 minutes at 12,000 rpm. 0.1 ml of the solvent layer was transferred into a 2-mL polypropylene tube containing 1 mL acid diluent (0.1% formic acid). The tubes were then mixed for a minimum of 5 minutes (Vibrax mixer) and then centrifuged at approximately 3500 rpm for 5 minutes. The extracts were transferred to auto-sampler vials and placed in the auto sampler tray which was set at ambient temperature. The auto-sampler was programmed to inject a 0.005 ml aliquot of each extract onto the analytical column.
In vivo confirmation of the cleavage of 20 to the parent molecule, 17, was carried out as described in the general methods.
Female CD-1 mice were given single doses of 20, either intravenously at 3 mg/kg, or orally at 10 mg/kg. Plasma samples were then collected at 8 time points (0.067, 0.25, 0.5, 1, 2, 4, 8 and 24 h postdose) over a 24-h period. The amounts of 20 and 17 in the samples were then analysed. […] After iv administration, 20 was only detected up to 0.25 hours after dosing, whilst 17 was detected up to 4 hours after dosing.

MEXF 394NL = assay: Monolayer proliferation assay (modified propidium iodide), MEXF 394NL; format: cell-based, human; settings: average of 2 experiments
Description: In vitro evaluation of compounds for anticancer activity in a panel of human tumour cell lines in a monolayer proliferation assay was carried out at the Oncotest Testing Facility, Institute for Experimental Oncology, Oncotest GmbH, Freiburg.
The Oncotest cell lines are established from human tumor xenografts as described by Roth et al., (1999). The origin of the donor xenografts is described by Fiebig et al., (1999). Other cell lines are either obtained from the NCl (DU145, MCF-7) or purchased from DSMZ, Braunschweig, Germany.
All cell lines, unless otherwise specified, are grown at 37° C. in a humidified atmosphere (95% air, 5% CO2) in a ‘ready-mix’ medium containing RPMI 1640 medium, 10% fetal calf serum, and 0.1 mg/mL gentamicin (PAA, Cölbe, Germany).
A modified propidium iodide assay was used to assess the effects of the test compound(s) on the growth of six human tumour cell lines (Dengler et al., (1995)).
Briefly, cells are harvested from exponential phase cultures by trypsinization, counted and plated in 96 well flat-bottomed microtitre plates at a cell density dependent on the cell line (5-10.000 viable cells/well). After 24 h recovery to allow the cells to resume exponential growth, 0.010 mL of culture medium (6 control wells per plate) or culture medium containing macbecin were added to the wells. Each concentration is plated in triplicate. Compounds were applied in two concentrations (0.001 mM and 0.01 mM). Following 4 days of continuous exposure, cell culture medium with or without test compound was replaced by 0.2 mL of an aqueous propidium iodide (P1) solution (7 mg/L). To measure the proportion of living cells, cells were permeabilized by freezing the plates. After thawing the plates, fluorescence was measured using the Cytofluor 4000 microplate reader (excitation 530 nm, emission 620 nm), giving a direct relationship to the total number of viable cells.
Growth inhibition is expressed as treated/control×100 (% T/C).
In vitro evaluation of the test compound, 20, for anticancer activity in a panel of human tumour cell lines in a monolayer proliferation assay was carried out as described in the general methods using a modified propidium iodide assay.

[2] = Aqueous solubility by direct dissolution; format: physicochemical; settings: water, deionised water; limit not tested
Source text: It is not possible to measure the solubility of 20 and 23 by this method due to their intrinsic high aqueous solubility.

CO[C@H]1C[C@H](C)Cc2cc(cc(OP(=O)(O)O)c2)NC(=O)/C(C)=C/CC[C@H](C)[C@@H](OC(N)=O)/C(C)=C/[C@H](C)[C@H]1O [Compound 20, 4,5-dihydro-11-O-demethyl-15-demethoxy-18,21-didehydro-21-deoxomacbecin-18-phosphate]
detected in plasma up to (time after dosing) ([1]; single intravenous dose of 20 at 3 mg/kg): up to 0.25 hours | detected in plasma up to (time after dosing) ([1]; single oral dose of 20 at 10 mg/kg): not seen in the plasma | Test/Control (%) at drug concentration (μg/mL) (MEXF 394NL; 0.01 μg/mL): 102% | Test/Control (%) at drug concentration (μg/mL) (MEXF 394NL; 0.1 μg/mL): 50% | Test/Control (%) at drug concentration (μg/mL) (MEXF 394NL; 1 μg/mL): 17% | Test/Control (%) at drug concentration (μg/mL) (MEXF 394NL; 10 μg/mL): 16% | Test/Control (%) at drug concentration (μg/mL) (MEXF 394NL; 100 μg/mL): 3% | solubility [2]: ≥ 10000 µg/mL and ≥ 17000 µM
